Like-named read-outs stand apart in the source and are kept apart here.
Assays:
Alternaria kikuchiana = assay: Antibacterial and Antifungal Activities (in Agricultural Field), MIC; type: cell-based; conditions: read-out: Minimal Inhibitory Conc. (MIC)
Mucor spinescens IAM Mu3 = assay: Antifungal Activity (in Industrial Field), MIC; type: cell-based; conditions: IAMMU3, read-out: Minimal Inhibitory Conc. (MIC)
[1] = system: Trichophyton mentagrophytes; assay: Reducing culture positive rate of skin slices from infected guinea pigs; type: in vivo, guinea pigs (White Hartly-strain); set-up: concentration or dose not given beside the values; conditions: after 8 days application, non-treated 100
[2] = system: Corynebacterium michiganense; assay: Antibacterial and Antifungal Activities (in Agricultural Field), MIC; type: cell-based; conditions: Clavibacter michiganensis, read-out: Minimal Inhibitory Conc. (MIC)
[3] = system: Pseudomonas syringae pv. tabaci; assay: as above; type: cell-based; conditions: read-out: Minimal Inhibitory Conc. (MIC)
[4] = system: Staphylococcus aureus 209P JC-1; assay: Antibacterial Activity (in medicinal field), MIC; type: cell-based; conditions: read-out: Minimal Inhibitory Conc. (MIC)
[5] = system: Trichophyton mentagrophytes; assay: Therapeutic experiment on trichophytosis in guinea pigs, visual observation; type: in vivo, guinea pigs (White Hartly-strain); conditions: 1% preparation, 0.25 ml once per day, 8 consecutive days
[6] = system: Fusarium oxysporum f. lycopersici; assay: Antibacterial and Antifungal Activities (in Agricultural Field), MIC; type: cell-based; conditions: read-out: Minimal Inhibitory Conc. (MIC)
Diaporithe citri = assay: as above; type: cell-based; conditions: read-out: Minimal Inhibitory Conc. (MIC)
[7] = system: Pseudomonas cepacia M-0527; assay: Antibacterial Activity (in medicinal field), MIC; type: cell-based; conditions: Burkholderia cepacia, M0527, read-out: Minimal Inhibitory Conc. (MIC)
[8] = system: Escherichia coli NIHJ JC-2; assay: Antibacterial Activity (in medicinal field), MIC; type: cell-based; conditions: NIHJJC2, read-out: Minimal Inhibitory Conc. (MIC)
[9] = system: Shigella sonnei EW 33 Type I; assay: Antibacterial Activity (in medicinal field), MIC; type: cell-based; conditions: EW33TYPEI, read-out: Minimal Inhibitory Conc. (MIC)
Gibberella fujikuroi = assay: Antibacterial and Antifungal Activities (in Agricultural Field), MIC; type: cell-based; conditions: Fusarium fujikuroi, read-out: Minimal Inhibitory Conc. (MIC)
[10] = system: Trichophyton interdigitale; assay: Antifungal Activity (in Medicinal Field), MIC; type: cell-based; conditions: read-out: Minimal Inhibitory Conc. (MIC)
[11] = system: Aspergillus fumigatus Saito; assay: Antifungal Activity (in Medicinal Field), MIC; type: cell-based; conditions: read-out: Minimal Inhibitory Conc. (MIC)
Pellicularia filamentosa = assay: Antibacterial and Antifungal Activities (in Agricultural Field), MIC; type: cell-based; conditions: read-out: Minimal Inhibitory Conc. (MIC)
Candida alubicans GA-24 = assay: Antifungal Activity (in Medicinal Field), MIC; type: cell-based; conditions: GA24; Candida alubicans GA-24; read-out: Minimal Inhibitory Conc. (MIC)
[12] = system: Chaetomium globosum ATCC 6205; assay: Antifungal Activity (in Industrial Field), MIC; type: cell-based; conditions: ATCC6205, read-out: Minimal Inhibitory Conc. (MIC)
[13] = system: Cryptococcus neoformans Cr-1; assay: Antifungal Activity (in Medicinal Field), MIC; type: cell-based; conditions: CR1, read-out: Minimal Inhibitory Conc. (MIC)
Cochliobolus miyabeanus = assay: Antibacterial and Antifungal Activities (in Agricultural Field), MIC; type: cell-based; conditions: Bipolaris oryzae, read-out: Minimal Inhibitory Conc. (MIC)
[14] = system: Aspergillus fumigatus IAM 2621; assay: Antifungal Activity (in Industrial Field), MIC; type: cell-based; conditions: IAM2621, read-out: Minimal Inhibitory Conc. (MIC)
[15] = system: Trichophyton metagrophytes 530324; assay: Antifungal Activity (in Medicinal Field), MIC; type: cell-based; conditions: Trichophyton metagrophytes 530324; read-out: Minimal Inhibitory Conc. (MIC)
[16] = system: Cladosporium herbarum IAM F-517; assay: Antifungal Activity (in Industrial Field), MIC; type: cell-based; conditions: IAMF517, read-out: Minimal Inhibitory Conc. (MIC)
[17] = system: Serratia marcescens MB-3848; assay: Antibacterial Activity (in medicinal field), MIC; type: cell-based; conditions: MB3848, read-out: Minimal Inhibitory Conc. (MIC)
[18] = system: Xanthomonas campestris pv. oryzae; assay: microbe, parasite or virus in culture; type: cell-based; conditions: read-out: Minimal Inhibitory Conc. (MIC)
[19] = system: Staphylococcus epidermidis ATCC 14990; assay: Antibacterial Activity (in medicinal field), MIC; type: cell-based
[20] = system: Aspergillus flavus ATCC 6275; assay: Antifungal Activity (in Industrial Field), MIC; type: cell-based; conditions: ATCC6275, read-out: Minimal Inhibitory Conc. (MIC)
[21] = system: Staphylococcus faecalis ATCC 8043; assay: Antibacterial Activity (in medicinal field), MIC; type: cell-based; conditions: ATCC8043, read-out: Minimal Inhibitory Conc. (MIC)
[22] = system: Pullularia pullulans IAM F-24; assay: Antifungal Activity (in Industrial Field), MIC; type: cell-based; conditions: IAMF24; Pullularia pullulans IAM F-24; read-out: Minimal Inhibitory Conc. (MIC)
[23] = system: Colletotrichum lagenarium; assay: Antibacterial and Antifungal Activities (in Agricultural Field), MIC; type: cell-based; conditions: Colletotrichum orbiculare, read-out: Minimal Inhibitory Conc. (MIC)
[24] = system: Trichoderma T-1 ATCC 9645; assay: Antifungal Activity (in Industrial Field), MIC; type: cell-based; conditions: ATCC9645, read-out: Minimal Inhibitory Conc. (MIC)
Botrytis cinerea = assay: Antibacterial and Antifungal Activities (in Agricultural Field), MIC; type: cell-based; conditions: read-out: Minimal Inhibitory Conc. (MIC)
Proteus vulgaris OX-19 = assay: Antibacterial Activity (in medicinal field), MIC; type: cell-based; conditions: OX19, read-out: Minimal Inhibitory Conc. (MIC)
Phricularia oryzae = assay: Antibacterial and Antifungal Activities (in Agricultural Field), MIC; type: cell-based; conditions: read-out: Minimal Inhibitory Conc. (MIC)
Glomerella cingulata = assay: as above; type: cell-based; conditions: Colletotrichum gloeosporioides, read-out: Minimal Inhibitory Conc. (MIC)
[25] = system: Xanthomonas campestris pv. citri; assay: as above; type: cell-based; conditions: read-out: Minimal Inhibitory Conc. (MIC)
Erwinia carotovora = assay: as above; type: cell-based; conditions: Pectobacterium carotovorum, read-out: Minimal Inhibitory Conc. (MIC)
[26] = system: Aspergillus terreus PQMD 82 j; assay: Antifungal Activity (in Industrial Field), MIC; type: cell-based; conditions: PQMD82J, read-out: Minimal Inhibitory Conc. (MIC)
[27] = system: Penicillium luteum ATCC 9644; assay: Antifungal Activity (in Industrial Field), MIC; type: cell-based; conditions: Ascospirella lutea, ATCC9644, read-out: Minimal Inhibitory Conc. (MIC)
[28] = system: Klebsiella pneumoniae PCI-602; assay: Antibacterial Activity (in medicinal field), MIC; type: cell-based; conditions: PCI602, read-out: Minimal Inhibitory Conc. (MIC)
[29] = Staphylococcus epidermidis, ATCC14990, read-out: Minimal Inhibitory Conc. (MIC)

O=[N+]([O-])c1cn(CC(I)=C(I)I)c(Cl)c1Cl [1-(2',3',3'-triiodoallyl)-2,3-dichloro-4-nitropyrrole]
0%: Reducing Culture Positive Rate ([1]; 3 days culture)
0.2 µg/mL: MIC [16]
> 50 µg/mL: MIC (Mucor spinescens IAM Mu3) | MIC [3] | MIC (Pellicularia filamentosa) | MIC [18] | MIC [22] | MIC [25] | MIC (Erwinia carotovora)
6.25 µg/mL: MIC (Alternaria kikuchiana) | MIC [2] | MIC [6] | MIC [7] | MIC ([9]; Shigella sonnei EW 33 Type I) | MIC [17] | MIC [24] | MIC (Proteus vulgaris OX-19) | MIC (Phricularia oryzae) | MIC [27]
0.39 µg/mL: MIC (Candida alubicans GA-24)
50 µg/mL: MIC [12] | MIC (Cochliobolus miyabeanus)
1.56 µg/mL: MIC [10] | MIC [23] | MIC (Glomerella cingulata) | MIC [26]
0.19 µg/mL: MIC [11] | MIC [13] | MIC [15]
25 µg/mL: MIC [14]
0.78 µg/mL: MIC (Diaporithe citri) | MIC [20]
3.12 µg/mL: MIC (Gibberella fujikuroi)
effective: Therapeutic Effect: Desquamation [5] | Therapeutic Effect: Thickening [5]
31.2 µg/mL: MIC ([4]; Staphylococcus aureus, 209P) | MIC [19, 29] | MIC [21]
16.7%: Reducing Culture Positive Rate ([1]; 5 days culture) | Reducing Culture Positive Rate ([1]; 7 days culture)
12.5 µg/mL: MIC [8] | MIC (Botrytis cinerea)

O=[N+]([O-])c1cc(Cl)n(CC(I)=C(I)I)c1 [1-(2',3',3'-triiodoallyl)-2-chloro-4-nitropyrrole]
1.56 µg/mL: MIC [22] | MIC [26] | MIC [27]
3.13 µg/mL: MIC (Mucor spinescens IAM Mu3) | MIC [12]
0.78 µg/mL: MIC [14]
0.2 µg/mL: MIC [16]
0.39 µg/mL: MIC [20]
6.25 µg/mL: MIC ([4]; Staphylococcus aureus, 209P) | MIC [19, 29] | MIC [21] | MIC [24]
12.5 µg/mL: MIC [7] | MIC [8] | MIC ([9]; Shigella sonnei EW 33 Type I) | MIC [17] | MIC (Proteus vulgaris OX-19)

O=[N+]([O-])c1nccn1CC(I)=C(I)I [1-(2',3',3'-triiodoallyl)-2-nitroimidazole]
0.19 µg/mL: MIC (Botrytis cinerea)
6.25 µg/mL: MIC (Mucor spinescens IAM Mu3) | MIC [14] | MIC [24] | MIC (Proteus vulgaris OX-19) | MIC [28]
3.13 µg/mL: MIC ([2]; Corynebacterium michiganense) | MIC [22] | MIC [27]
12.5 µg/mL: MIC [3] | MIC ([4]; Staphylococcus aureus 209P JC-1) | MIC [18] | MIC ([19]; ATCC14990, Staphylococcus epidermidis ATCC 14990, read-out: Minimal Inhibitory Conc. (MIC)) | MIC (Erwinia carotovora)
1.56 µg/mL: MIC [6] | MIC (Diaporithe citri) | MIC [10] | MIC [12] | MIC [20]
3.12 µg/mL: MIC [7] | MIC ([9]; Shigella sonnei)
0.39 µg/mL: MIC [16]
0.78 µg/mL: MIC (Alternaria kikuchiana) | MIC (Gibberella fujikuroi) | MIC [11] | MIC (Candida alubicans GA-24) | MIC (Cochliobolus miyabeanus) | MIC [15] | MIC [23] | MIC (Glomerella cingulata) | MIC [26]
25 µg/mL: MIC (Pellicularia filamentosa) | MIC [13] | MIC [25]

Source: patent US4563472A, “Iodoallyl and iodopropargyl substituted tetrazoles and anti-microbial compositions thereof” (Meiji Seika Kaisha, Ltd., priority 1982, dated 1986)
